{
  "source": "PubChem BioAssay AID330",
  "about": "(DTP/NCI, 2004)",
  "tested_on": "P388 leukemia ip, CD2F1 mice, survival T/C",
  "experiment": "NCI In Vivo Anticancer Drug Screen. Data for tumor model P388 Leukemia (intraperitoneal) in CD2F1 (CDF1) mice",
  "details": "endpoint: median survival time, higher = longer survival",
  "procedure,_shortened": "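Mice carrying the transplanted tumor received test compound or vehicle. Survival was recorded in each group, and the value is the treated-group measurement divided by that of the vehicle-treated control group.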",
  "key": {"[1]": {"details": "dose: 100.0 mg/kg/injection, schedule: Q01DX009 (ip), vehicle: Klucel (hydroxypropylcellulose) (HPC)"}, "[2]": {"details": "dose: 200.0 mg/kg/injection, schedule: Q01DX009 (ip), vehicle: Klucel (hydroxypropylcellulose) (HPC)"}, "[3]": {"details": "dose: 12.5 mg/kg/injection, schedule: Q01DX009 (ip), vehicle: Klucel (hydroxypropylcellulose) (HPC)"}, "[4]": {"details": "dose: 25.0 mg/kg/injection, schedule: Q01DX009 (ip), vehicle: Klucel (hydroxypropylcellulose) (HPC)"}, "[5]": {"details": "dose: 50.0 mg/kg/injection, schedule: Q01DX009 (ip), vehicle: Klucel (hydroxypropylcellulose) (HPC)"}, "[6]": {"details": "dose: 60.0 mg/kg/injection, schedule: Q01DX005 (ip), vehicle: Klucel (hydroxypropylcellulose) (HPC)"}, "[7]": {"details": "dose: 120.0 mg/kg/injection, schedule: Q01DX005 (ip), vehicle: Klucel (hydroxypropylcellulose) (HPC)"}, "[8]": {"details": "dose: 240.0 mg/kg/injection, schedule: Q01DX005 (ip), vehicle: Klucel (hydroxypropylcellulose) (HPC)"}},
  "note": "Values joined by “and” are separate entries in the source; they are usually repeats but may differ in a detail not shown here. Equal values may be shown once. Inconclusive results and toxic doses are left out.",
  "data": [
    {"molecule": "OCc1nccn1Cc1ccccc1", "values": [
      {"measurement": "T/C", "setting": "dose: 50.0 mg/kg/injection, schedule: Q01DX001 (ip), vehicle: saline", "value": "115 % of control"},
      {"measurement": "T/C", "setting": "dose: 100.0 mg/kg/injection, schedule: Q01DX001 (ip), vehicle: saline", "value": "95 % of control"}
    ]},
    {"molecule": "ICC1(CI)COC1", "values": [
      {"measurement": "T/C", "setting": "[1]", "value": "105 % of control"},
      {"measurement": "T/C", "setting": "[2]", "value": "104 % of control"},
      {"measurement": "T/C", "setting": "dose: 400.0 mg/kg/injection, schedule: Q01DX009 (ip), vehicle: Klucel (hydroxypropylcellulose) (HPC)", "value": "99 % of control"}
    ]},
    {"molecule": "O=[n+]1c2ccccc2n([O-])c2ccccc21.[Cl][Ni][Cl]", "values": [
      {"measurement": "T/C", "setting": "dose: 6.25 mg/kg/injection, schedule: Q04DX003 (ip), vehicle: saline with Tween-80", "value": "102 % of control and 94 % of control"},
      {"measurement": "T/C", "setting": "dose: 12.5 mg/kg/injection, schedule: Q04DX003 (ip), vehicle: saline with Tween-80", "value": "111 % of control and 121 % of control"},
      {"measurement": "T/C", "setting": "dose: 25.0 mg/kg/injection, schedule: Q04DX003 (ip), vehicle: saline with Tween-80", "value": "115 % of control and 121 % of control"},
      {"measurement": "T/C", "setting": "dose: 50.0 mg/kg/injection, schedule: Q04DX003 (ip), vehicle: saline with Tween-80", "value": "114 % of control"}
    ]},
    {"molecule": "COc1ccc2oc3c(ccc[n+]3C)c(=O)c2c1", "values": [
      {"measurement": "T/C", "setting": "dose: 30.0 mg/kg/injection, schedule: Q01DX005 (ip), vehicle: saline with Tween-80", "value": "107 % of control"},
      {"measurement": "T/C", "setting": "dose: 60.0 mg/kg/injection, schedule: Q01DX005 (ip), vehicle: saline with Tween-80", "value": "120 % of control"},
      {"measurement": "T/C", "setting": "dose: 120.0 mg/kg/injection, schedule: Q01DX005 (ip), vehicle: saline with Tween-80", "value": "107 % of control"}
    ]},
    {"molecule": "Cn1cnc([N+](=O)[O-])c1Sc1ncnc2nc[nH]c12", "values": [
      {"measurement": "T/C", "setting": "dose: 216.0 mg/kg/injection, schedule: Q01DX001 (ip), vehicle: saline with Tween-80", "value": "106 % of control and 122 % of control"},
      {"measurement": "T/C", "setting": "dose: 360.0 mg/kg/injection, schedule: Q01DX001 (ip), vehicle: saline with Tween-80", "value": "118 % of control"},
      {"measurement": "T/C", "setting": "dose: 600.0 mg/kg/injection, schedule: Q01DX001 (ip), vehicle: saline with Tween-80", "value": "108 % of control and 79 % of control"}
    ]},
    {"molecule": "NC1CC2CCCCC2CC1(O)c1ccccc1", "note": "(stereo not given)", "values": [
      {"measurement": "T/C", "setting": "[3]", "value": "98 % of control"},
      {"measurement": "T/C", "setting": "[4]", "value": "107 % of control"},
      {"measurement": "T/C", "setting": "[5]", "value": "107 % of control"}
    ]},
    {"molecule": "COc1cc(Cc2nccc3cc(OC)c(OC)cc23)c(C(C)=O)cc1OC", "values": [
      {"measurement": "T/C", "setting": "dose: 3.13 mg/kg/injection, schedule: Q01DX009 (ip), vehicle: saline sonified", "value": "123 % of control"},
      {"measurement": "T/C", "setting": "[3]", "value": "105 % of control"},
      {"measurement": "T/C", "setting": "dose: 12.5 mg/kg/injection, schedule: Q01DX009 (ip), vehicle: saline sonified", "value": "161 % of control"},
      {"measurement": "T/C", "setting": "[4]", "value": "106 % of control"},
      {"measurement": "T/C", "setting": "[5]", "value": "113 % of control"},
      {"measurement": "T/C", "setting": "dose: 100.0 mg/kg/injection, schedule: Q04DX003 (ip), vehicle: saline with Tween-80", "value": "100 % of control"}
    ]},
    {"molecule": "O=C(NC(CCS(=O)(=O)F)C(=O)OCc1ccccc1)OCc1ccccc1", "note": "(stereo not given)", "values": [
      {"measurement": "T/C", "setting": "dose: 12.5 mg/kg/injection, schedule: Q01DX009 (ip), vehicle: other", "value": "102 % of control"},
      {"measurement": "T/C", "setting": "dose: 25.0 mg/kg/injection, schedule: Q01DX009 (ip), vehicle: other", "value": "97 % of control"},
      {"measurement": "T/C", "setting": "dose: 50.0 mg/kg/injection, schedule: Q01DX009 (ip), vehicle: other", "value": "100 % of control"},
      {"measurement": "T/C", "setting": "dose: 100.0 mg/kg/injection, schedule: Q01DX009 (ip), vehicle: other", "value": "102 % of control"},
      {"measurement": "T/C", "setting": "dose: 200.0 mg/kg/injection, schedule: Q01DX009 (ip), vehicle: other", "value": "105 % of control"}
    ]},
    {"molecule": "CC1(C)SC(C)(c2ccsc2)N(c2nccs2)C1=O", "note": "(stereo not given)", "values": [
      {"measurement": "T/C", "setting": "[6]", "value": "97 % of control"},
      {"measurement": "T/C", "setting": "[7]", "value": "96 % of control"},
      {"measurement": "T/C", "setting": "[8]", "value": "94 % of control"}
    ]},
    {"molecule": "CN1c2ccccc2Sc2c1n[nH]c2-c1ccccc1", "values": [
      {"measurement": "T/C", "setting": "[6]", "value": "104 % of control"},
      {"measurement": "T/C", "setting": "[7]", "value": "111 % of control"},
      {"measurement": "T/C", "setting": "[8]", "value": "119 % of control"}
    ]},
    {"molecule": "NC(=O)c1nccnc1Cl", "values": [
      {"measurement": "T/C", "setting": "[5]", "value": "101 % of control"},
      {"measurement": "T/C", "setting": "[1]", "value": "100 % of control"},
      {"measurement": "T/C", "setting": "[2]", "value": "114 % of control"}
    ]},
    {"molecule": "CC1=CC(=O)[C@@H](O)[C@]2(C)[C@H]3[C@@H](O)[C@H](O)[C@@]4(C)OC[C@@]35[C@@H](C[C@@H]12)OC(=O)C[C@]54O", "values": [
      {"measurement": "T/C", "setting": "dose: 1.0 mg/kg/injection, schedule: Q01DX009 (ip), vehicle: saline", "value": "115 % of control"},
      {"measurement": "T/C", "setting": "dose: 8.0 mg/kg/injection, schedule: Q01DX009 (ip), vehicle: saline", "value": "153 % of control"}
    ]}
  ]
}
